Measured values: article PMC2248166, “Quantitative peptide binding motifs for 19 human and mouse MHC class I molecules derived using positional scanning combinatorial peptide libraries” (Immunome Research, 2008)
Where a SMILES comes first, the peptide text is derived from it.

Each molecule was assayed against HLA B*1503 (Homo sapiens, UniProt P01889, A329T/A93T/A95T/C349S/D201E/D98Y/E187L/E204Q/K202T/N87E/Q94N/R155S/R180L/S121R/S35A/V306I/V36M/Y140S/Y91S) (assay: biochemical).
Format: binding

**Q.** `CC[C@H](C)[C@H](N)C(=O)N[C@@H](CCCCN)C(=O)N[C@@H](CCC(=O)O)C(=O)N[C@@H](CC(N)=O)C(=O)N[C@@H](CO)C(=O)N[C@H](C(=O)N[C@@H](Cc1ccc(O)cc1)C(=O)N[C@@H](CO)C(=O)N[C@@H](Cc1ccccc1)C(=O)O)[C@@H](C)CC` [3102.1146] (H-IKENSIYSF-OH) was tested. Which IC50 did it give?
**A.** Its IC50 is 1.5 nM.

**Q.** `CC(C)C[C@H](NC(=O)[C@H](Cc1ccc(O)cc1)NC(=O)[C@H](CCC(N)=O)NC(=O)[C@H](CO)NC(=O)[C@H](CCCNC(=N)N)NC(=O)[C@H](CC(N)=O)NC(=O)[C@H](CCC(N)=O)NC(=O)[C@@H](N)CCCNC(=N)N)C(=O)N[C@@H](Cc1ccccc1)C(=O)O` [3102.1112] (H-RQNRSQYLF-OH) was tested. Which IC50 did it give?
**A.** Its IC50 is 0.14 nM.

**Q.** For `N=C(N)NCCC[C@H](NC(=O)[C@H](CC(=O)O)NC(=O)[C@H](CCCCN)NC(=O)[C@H](CCC(=O)O)NC(=O)[C@H](Cc1ccccc1)NC(=O)[C@H](CCC(N)=O)NC(=O)[C@@H](N)CCCNC(=N)N)C(=O)N[C@@H](CO)C(=O)N[C@@H](Cc1ccccc1)C(=O)O` [3102.1103] (H-RQFEKDRSF-OH), which IC50 is on record?
**A.** Its IC50 is 0.14 nM.

**Q.** For `CC[C@H](C)[C@H](N)C(=O)N[C@@H](Cc1c[nH]cn1)C(=O)N[C@H](C(=O)N1CCC[C@H]1C(=O)N[C@@H](CCC(N)=O)C(=O)N[C@@H](CO)C(=O)N[C@@H](CCC(N)=O)C(=O)N[C@@H](CC(C)C)C(=O)N[C@@H](Cc1ccccc1)C(=O)O)[C@@H](C)CC` [3102.1155] (H-IHIPQSQLF-OH), which IC50 is on record?
**A.** The IC50 was 5.5 nM.

**Q.** `CC[C@H](C)[C@H](NC(=O)[C@@H](NC(=O)[C@H](C)NC(=O)[C@H](CS)NC(=O)[C@H](CCCNC(=N)N)NC(=O)[C@@H](NC(=O)[C@@H](N)Cc1ccccc1)[C@@H](C)O)C(C)C)C(=O)N1CCC[C@H]1C(=O)N[C@@H](Cc1ccccc1)C(=O)O` [3102.1166] (H-FTRCAVIPF-OH) was tested. Which IC50 did it give?
**A.** The IC50 was 5.4 nM.

**Q.** How did the IC50 turn out when `CC[C@H](C)[C@H](N)C(=O)N[C@@H](CCCCN)C(=O)N[C@@H](Cc1ccc(O)cc1)C(=O)N[C@@H](CCSC)C(=O)N[C@H](C(=O)NCC(=O)N[C@@H](CC(N)=O)C(=O)N[C@@H](Cc1ccccc1)C(=O)N[C@@H](CCSC)C(=O)O)[C@@H](C)CC` [3102.1120] (H-IKYMIGNFM-OH) was run?
**A.** The IC50 was 2.2 nM.

**Q.** With `CC[C@H](C)[C@H](NC(=O)[C@@H](NC(=O)[C@H](CCC(=O)O)NC(=O)[C@H](Cc1ccccc1)NC(=O)[C@H](Cc1ccccc1)NC(=O)[C@H](CCCCN)NC(=O)[C@@H](N)CC(N)=O)C(C)C)C(=O)N[C@@H](Cc1ccccc1)C(=O)N[C@@H](Cc1ccccc1)C(=O)O` [3102.1109] (H-NKFFEVIFF-OH) as the molecule, how does the IC50 read?
**A.** The IC50 was 19 nM.

**Q.** With `CC[C@H](C)[C@H](NC(=O)[C@H](CC(N)=O)NC(=O)[C@@H](NC(=O)[C@H](C)NC(=O)[C@H](CS)NC(=O)[C@H](CCCNC(=N)N)NC(=O)[C@@H](NC(=O)[C@@H](N)CO)[C@@H](C)CC)[C@@H](C)O)C(=O)N[C@@H](Cc1ccccc1)C(=O)O` [3102.1321] (H-SIRCATNIF-OH) as the molecule, how does the IC50 read?
**A.** The IC50 was 20 nM.

**Q.** Which IC50 does the source give for `CC[C@H](C)[C@H](N)C(=O)N[C@@H](CCC(N)=O)C(=O)N[C@@H](Cc1c[nH]cn1)C(=O)N[C@@H](CC(N)=O)C(=O)N[C@@H](Cc1ccccc1)C(=O)N[C@H](C(=O)N[C@@H](CCC(N)=O)C(=O)N[C@H](C(=O)N[C@@H](C)C(=O)O)[C@@H](C)CC)[C@@H](C)O` [3102.1181] (H-IQHNFTQIA-OH) here?
**A.** The IC50 was 0.25 nM.

**Q.** With `CSCC[C@H](NC(=O)[C@@H](N)CC(C)C)C(=O)N[C@H](C(=O)N[C@@H](CO)C(=O)NCC(=O)N1CCC[C@H]1C(=O)N[C@@H](CC(N)=O)C(=O)N[C@H](C(=O)N[C@H](C(=O)O)C(C)C)C(C)C)C(C)C` [3102.1249] (H-LMVSGPNVV-OH) as the molecule, how does the IC50 read?
**A.** Its IC50 is 3.8 nM.

**Q.** For `CC[C@H](C)[C@H](NC(=O)[C@H](CO)NC(=O)[C@H](CCC(N)=O)NC(=O)[C@H](CCC(N)=O)NC(=O)[C@H](CC(C)C)NC(=O)[C@H](Cc1ccccc1)NC(=O)[C@H](CC(C)C)NC(=O)[C@@H](N)C(C)C)C(=O)N[C@@H](Cc1ccccc1)C(=O)O` [3102.1081] (H-VLFLQQSIF-OH), which IC50 is on record?
**A.** Its IC50 is 0.61 nM.
